Our source for the pest or weed control and mortality values is patent US9783532B2, “Molecules having certain pesticidal utilities, and intermediates, compositions, and processes related thereto” (Dow AgroSciences LLC, priority 2013, dated 2017).

Where two headings read alike, the source gives them in different places.

The subject of experiment [1] is Beet Armyworm (Spodoptera exigua) ("BAW"). Briefly: Bioassay on beet armyworm (BAW), 128-well diet tray assay. The conditions noted are these: for pest or weed control at 50 µg/cm2: activity rating class, read-out: BAW (Biological Results, Insect species); for mortality at 50 µg/cm2: 168 h, 50 μg/cm^2 on artificial diet, second instar BAW larvae, 25° C., five to seven days, average of eight wells, read-out: BAW % Control (or Mortality) rating. In kind it is in vivo. Summed up:
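Second-instar larvae (one to five per well) were placed on artificial diet surface-treated with 50 μg/cm^2 compound applied in 90:10 acetone-water and dried, eight wells per compound. Held at 25° C., 14:10 light-dark for five to seven days; percent mortality was scored per well and averaged over the eight wells.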

For experiment [2], the system named is Cabbage Looper (Trichoplusia ni) ("CL"). Briefly: Bioassay on cabbage looper (CL), 128-well diet tray assay. The conditions noted are these: for pest or weed control at 50 µg/cm2: activity rating class, read-out: CL (Biological Results, Insect species); for mortality at 50 µg/cm2: 168 h, 50 μg/cm^2 on artificial diet, second instar CL larvae, 25° C., five to seven days, average of eight wells, read-out: CL % Control (or Mortality) rating. In kind it is in vivo. In short, it runs like this:
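Second-instar larvae (one to five per well) placed on artificial diet surface-treated with 50 μg/cm^2 compound in 90:10 acetone-water, dried before infestation. Held 25 °C, 14:10 light-dark for five to seven days; percent mortality scored per well and averaged over eight wells.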

For the compound `Cc1ccc(NC(=S)NC(=O)NCc2ccc(-c3ncn(-c4ccc(C(F)(F)F)cc4)n3)cc2)c(C(C)C)c1` [PC15, 1-[(2-isopropyl-4-methyl-phenyl)carbamothioyl]-3-[[4-[1-[4-(trifluoromethyl)phenyl]-1,2,4-triazol-3-yl]phenyl]methyl]urea], the pest or weed control at 50 µg/cm2 in experiment [1] (Table ABC (PC)) and in experiment [2] (Table ABC (PC)) was 50 to 100% throughout.
Usually mortality stands for the percentage killed. As to `Cc1ccccc1N1C(=O)CS/C1=N\C(=O)NCCCc1cccc(-c2ncn(-c3ccc(OC(F)(F)F)cc3)n2)c1` [P118, (Z)-1-(4-oxo-3-(o-tolyl)thiazolidin-2-ylidene)-3-(3-(3-(1-(4-(trifluoromethoxy)phenyl)-1H-1,2,4-triazol-3-yl)phenyl)propyl)urea], the mortality at 50 µg/cm2 in experiment [1] and in experiment [2] was 50 to 100% each time.
In the case of `Cc1ccc(C(C)C)c(N2C(=O)CS/C2=N\C(=O)NC(C)(C)Cc2ccc(-c3ncn(-c4ccc(OC(F)(F)F)cc4)n3)cc2)c1` [FB52, (Z)-1-(3-(2-isopropyl-5-methylphenyl)-4-oxothiazolidin-2-ylidene)-3-(2-methyl-1-(4-(1-(4-(trifluoromethoxy)phenyl)-1H-1,2,4-triazol-3-yl)phenyl)propan-2-yl)urea], the pest or weed control at 50 µg/cm2 in experiment [1] (Table ABC (FB)) and in experiment [2] (Table ABC (FB)) was 50 to 100% throughout.
In the case of `Cc1ccc(N2C(=O)CS/C2=N\C(=O)NCc2ccc(-c3ncn(-c4ccc(OC(F)(F)F)cc4)n3)cc2)c(C(C)C)c1` [P5, (Z)-1-(3-(2-isopropyl-4-methylphenyl)-4-oxothiazolidin-2-ylidene)-3-(4-(1-(4-(trifluoromethoxy)phenyl)-1H-1,2,4-triazol-3-yl)benzyl)urea], the mortality at 50 µg/cm2 in experiment [1] and in experiment [2] was 50 to 100% in each case.
Regarding `COc1ccc(N2C(=O)CS/C2=N\C(=O)NCCc2cccc(-c3ncn(-c4ccc(OC(F)(F)F)cc4)n3)c2)c(C)c1` [P87, (Z)-1-(3-(4-methoxy-2-methylphenyl)-4-oxothiazolidin-2-ylidene)-3-(3-(1-(4-(trifluoromethoxy)phenyl)-1H-1,2,4-triazol-3-yl)phenethyl)urea], the mortality at 50 µg/cm2 in experiment [1] and in experiment [2] was 50 to 100% in each case.
`Cc1ccc(C(C)C)c(NC(=S)NC(=O)NCc2cccc(-c3ncn(-c4ccc(OC(F)(F)F)cc4)n3)c2)c1` [FB25, 1-[(2-isopropyl-5-methyl-phenyl)carbamothioyl]-3-[[3-[1-[4-(trifluoromethoxy)phenyl]-1H-1,2,4-triazol-3-yl]phenyl]methyl]urea]: the pest or weed control at 50 µg/cm2 in experiment [1] (Table ABC (FB)) and in experiment [2] (Table ABC (FB)) was 50 to 100% throughout.
On to `Cc1ccc(C(C)C)c(N2C(=O)C3(CC3)S/C2=N\C(=O)NCCc2ccc(-c3ncn(-c4ccc(OC(F)(F)F)cc4)n3)cc2)c1` [FB69, (Z)-1-(6-(2-isopropyl-5-methylphenyl)-7-oxo-4-thia-6-azaspiro[2.4]heptan-5-ylidene)-3-(4-(1-(4-(trifluoromethoxy)phenyl)-1H-1,2,4-triazol-3-yl)phenethyl)urea], for which the pest or weed control at 50 µg/cm2 in experiment [1] (Table ABC (FB)) and in experiment [2] (Table ABC (FB)) was 50 to 100% each time.
As for `Cc1ccc(C(C)C)c(N2C(=O)CS/C2=N\C(=O)NCc2ccc(-c3ncn(-c4ccc(OC(F)(F)C(F)(F)F)cc4)n3)cc2)c1` [F19, (Z)-1-(3-(2-isopropyl-5-methylphenyl)-4-oxothiazolidin-2-ylidene)-3-(4-(1-(4-(perfluoroethoxy)phenyl)-1H-1,2,4-triazol-3-yl)benzyl)urea], the mortality at 50 µg/cm2 in experiment [1] and in experiment [2] was 50 to 100% each time.
Regarding `COc1ccc(C(C)C)c(N2C(=O)CS/C2=N\C(=O)NCCc2ccc(-c3ncn(-c4ccc(OC(F)(F)F)cc4)n3)cc2F)c1` [FB9, (Z)-1-(2-fluoro-4-(1-(4-(trifluoromethoxy)phenyl)-1H-1,2,4-triazol-3-yl)phenethyl)-3-(3-(2-isopropyl-5-methoxyphenyl)-4-oxothiazolidin-2-ylidene)urea], the pest or weed control at 50 µg/cm2 in experiment [1] (Table ABC (FB)) and in experiment [2] (Table ABC (FB)) was 50 to 100% each time.
With `Cc1ccccc1N1C(=O)CS/C1=N\C(=O)NCCc1cccc(-c2ncn(-c3ccc(OC(F)(F)F)cc3)n2)c1` [P74, (Z)-1-(4-oxo-3-(o-tolyl)thiazolidin-2-ylidene)-3-(3-(1-(4-(trifluoromethoxy)phenyl)-1H-1,2,4-triazol-3-yl)phenethyl)urea], the mortality at 50 µg/cm2 in experiment [1] and in experiment [2] was 50 to 100% in each case.
Turning to `Cc1ccccc1NC(=S)NC(=O)NCCc1cccc(-c2ncn(-c3ccc(OC(F)(F)F)cc3)n2)c1` [PC74, 1-(o-tolylcarbamothioyl)-3-[2-[3-[1-[4-(trifluoromethoxy)phenyl]-1H-1,2,4-triazol-3-yl]phenyl]ethyl]urea], the pest or weed control at 50 µg/cm2 in experiment [1] (Table ABC (PC)) and in experiment [2] (Table ABC (PC)) was 50 to 100% in each case.
Consider `CCc1cccc(C)c1N1C(=O)CS/C1=N\C(=O)NCc1cccc(-c2ncn(-c3ccc(OC(F)(F)F)cc3)n2)c1` [FB30, (Z)-1-(3-(2-ethyl-6-methylphenyl)-4-oxothiazolidin-2-ylidene)-3-(3-(1-(4-(trifluoromethoxy)phenyl)-1H-1,2,4-triazol-3-yl)benzyl)urea], for which the pest or weed control at 50 µg/cm2 in experiment [1] (Table ABC (FB)) and in experiment [2] (Table ABC (FB)) was 50 to 100% each time.
For `CC(C)c1ccccc1N1C(=O)CS/C1=N\C(=O)NCc1ccc(-c2ncn(-c3ccc(OC(F)(F)F)cc3)n2)cc1` [F17, (Z)-1-(3-(2-isopropylphenyl)-4-oxothiazolidin-2-ylidene)-3-(4-(1-(4-(trifluoromethoxy)phenyl)-1H-1,2,4-triazol-3-yl)benzyl)urea], the mortality at 50 µg/cm2 in experiment [1] and in experiment [2] was 50 to 100% throughout.
Consider `CC(C)c1ccccc1N1C(=O)CS/C1=N\C(=O)NCCCc1cccc(-c2ncn(-c3ccc(OC(F)(F)F)cc3)n2)c1` [P120, (Z)-1-(3-(2-isopropylphenyl)-4-oxothiazolidin-2-ylidene)-3-(3-(3-(1-(4-(trifluoromethoxy)phenyl)-1H-1,2,4-triazol-3-yl)phenyl)propyl)urea], for which the mortality at 50 µg/cm2 in experiment [1] and in experiment [2] was 50 to 100% in each case.
For `CCc1ccccc1N1C(=O)CS/C1=N\C(=O)NCCCc1cccc(-c2ncn(-c3ccc(OC(F)(F)F)cc3)n2)c1` [P119, (Z)-1-(3-(2-ethylphenyl)-4-oxothiazolidin-2-ylidene)-3-(3-(3-(1-(4-(trifluoromethoxy)phenyl)-1H-1,2,4-triazol-3-yl)phenyl)propyl)urea], the mortality at 50 µg/cm2 in experiment [1] and in experiment [2] was 50 to 100% in each case.
Turning to `Cc1ccc(C(C)C)c(NC(=S)NC(=O)NCCC#Cc2ccc(-c3ncn(-c4ccc(OC(F)(F)F)cc4)n3)cc2)c1` [PC160, 1-[(2-isopropyl-5-methyl-phenyl)carbamothioyl]-3-[4-[4-[1-[4-(trifluoromethoxy)phenyl]-1H-1,2,4-triazol-3-yl]phenyl]but-3-ynyl]urea], the pest or weed control at 50 µg/cm2 in experiment [1] (Table ABC (PC)) and in experiment [2] (Table ABC (PC)) was 50 to 100% throughout.
With `CCc1ccc(C)cc1NC(=S)NC(=O)NCc1ccc(-c2ncn(-c3ccc(OC(F)(F)F)cc3)n2)cc1` [PC7], the pest or weed control at 50 µg/cm2 in experiment [1] (Table ABC (PC)) and in experiment [2] (Table ABC (PC)) was 50 to 100% each time.
Take `CCc1ccccc1-n1c(=O)n(CC)s/c1=N\C(=O)NCCc1ccc(-c2ncn(-c3ccc(OC(F)(F)F)cc3)n2)cc1` [FB10, (Z)-1-(2-ethyl-4-(2-ethylphenyl)-3-oxo-1,2,4-thiadiazolidin-5-ylidene)-3-(4-(1-(4-(trifluoromethoxy)phenyl)-1H-1,2,4-triazol-3-yl)phenethyl)urea]: the pest or weed control at 50 µg/cm2 in experiment [1] (Table ABC (FB)) and in experiment [2] (Table ABC (FB)) was 50 to 100% in each case.
Consider `Cc1ccccc1N1C(=O)CS/C1=N\C(=O)NCCCc1ccc(-c2ncn(-c3ccc(OC(F)(F)F)cc3)n2)cc1` [P92, (Z)-1-(4-oxo-3-(o-tolyl)thiazolidin-2-ylidene)-3-(3-(4-(1-(4-(trifluoromethoxy)phenyl)-1H-1,2,4-triazol-3-yl)phenyl)propyl)urea], for which the mortality at 50 µg/cm2 in experiment [1] and in experiment [2] was 50 to 100% in each case.
Consider `CCc1ccccc1NC(=S)NC(=O)NCCc1ccc(-c2ncn(-c3ccc(OC(F)(F)F)cc3)n2)cc1C` [FB5, 1-[(2-ethylphenyl)carbamothioyl]-3-[2-[2-methyl-4-[1-[4-(trifluoromethoxy)phenyl]-1H-1,2,4-triazol-3-yl]phenyl]ethyl]urea], for which the pest or weed control at 50 µg/cm2 in experiment [1] (Table ABC (FB)) and in experiment [2] (Table ABC (FB)) was 50 to 100% in each case.
In the case of `CCc1ccccc1N1C(=O)CS/C1=N\C(=O)NCCCCc1cccc(-c2ncn(-c3ccc(OC(F)(F)F)cc3)n2)c1` [P171, (Z)-1-(3-(2-ethylphenyl)-4-oxothiazolidin-2-ylidene)-3-(4-(3-(1-(4-(trifluoromethoxy)phenyl)-1H-1,2,4-triazol-3-yl)phenyl)butyl)urea], the mortality at 50 µg/cm2 in experiment [1] and in experiment [2] was 50 to 100% throughout.
As to `CC(C)c1ccccc1NC(=S)NC(=O)NCCCCc1cccc(-c2ncn(-c3ccc(OC(F)(F)F)cc3)n2)c1` [PC172, 1-[(2-isopropylphenyl)carbamothioyl]-3-[4-[3-[1-[4-(trifluoromethoxy)phenyl]-1H-1,2,4-triazol-3-yl]phenyl]butyl]urea], the pest or weed control at 50 µg/cm2 in experiment [1] (Table ABC (PC)) and in experiment [2] (Table ABC (PC)) was 50 to 100% in each case.
